Measured values reported in the NIST ThermoML archive (doi:10.1021/je100104v).

Legend:
[1] = refractive index (Na D-line) (dimensionless); xn = mol fraction of the nth substance listed; details: 101.3 kPa, Liquid, Standard Abbe refractometry
[2] = xn = mol fraction of the nth substance listed; details: Liquid; for electrical conductivity / viscosity: 101.3 kPa; for electrical conductivity: Eutech Cyberscan Con 11; for mass density: 101 kPa

NC(=O)C(F)(F)F [2,2,2-trifluoroacetamide] + C[P+](c1ccccc1)(c1ccccc1)c1ccccc1.[Br-]
Details | electrical conductivity, [2] [S/m] | mass density, [2] [kg/m3] | refractive index, [1] | viscosity, [2] [mPa·s]
278.1 K, x2 = 0.111 | 0.0134 | – | – | 657.7
288.15 K, x1 = 0.111 | – | – | 1.4913 | –
288.15 K, x2 = 0.111 | 0.0351 | – | – | 405.9
298.15 K, x1 = 0.111 | – | – | 1.4849 | –
298.15 K, x2 = 0.111 | 0.0848 | 1394.7 | – | 136.5
308.15 K, x1 = 0.111 | – | – | 1.4824 | –
308.15 K, x2 = 0.111 | 0.182 | 1383.7 | – | 71.3
318.15 K, x1 = 0.111 | – | – | 1.4782 | –
318.15 K, x2 = 0.111 | 0.282 | 1372.7 | – | 39
328.15 K, x1 = 0.111 | – | – | 1.4745 | –
328.15 K, x2 = 0.111 | 0.349 | 1361.6 | – | 24.1
338.15 K, x1 = 0.111 | – | – | 1.4737 | –
338.15 K, x2 = 0.111 | 0.418 | 1350.4 | – | 16.6
348.15 K, x2 = 0.111 | 0.482 | 1339.3 | – | 11.1
358.15 K, x2 = 0.111 | 0.55 | 1328.2 | – | 0.9
368.15 K, x2 = 0.111 | 0.609 | – | – | –

[Cl-].c1ccc(C[P+](c2ccccc2)(c2ccccc2)c2ccccc2)cc1 [benzyltriphenylphosphonium chloride] + OCC(O)CO
Details | electrical conductivity, [2] [S/m] | refractive index, [1] | viscosity, [2] [mPa·s]
328.15 K, x1 = 0.167 | – | – | 553.7
328.15 K, x2 = 0.167 | – | 1.5502 | –
338.15 K, x1 = 0.167 | 0.00187 | – | 339.3
338.15 K, x2 = 0.167 | – | 1.5168 | –
348.15 K, x1 = 0.167 | 0.00167 | – | 118.6
358.15 K, x1 = 0.167 | 0.00151 | – | 75.5
368.15 K, x1 = 0.167 | 0.00139 | – | 38.7

[Cl-].c1ccc(C[P+](c2ccccc2)(c2ccccc2)c2ccccc2)cc1 [benzyltriphenylphosphonium chloride] + OCCO
Details | electrical conductivity, [2] [S/m] | refractive index, [1] | viscosity, [2] [mPa·s]
328.15 K, x1 = 0.25 | 0.0485 | – | 201.9
328.15 K, x2 = 0.25 | – | 1.5258 | –
338.15 K, x1 = 0.25 | 0.0199 | – | 85.5
338.15 K, x2 = 0.25 | – | 1.5309 | –
348.15 K, x1 = 0.25 | 0.00164 | – | 59.3
358.15 K, x1 = 0.25 | 0.00148 | – | 50.5
368.15 K, x1 = 0.25 | 0.00136 | – | 35.9

C[P+](c1ccccc1)(c1ccccc1)c1ccccc1.[Br-] [methyltriphenylphosphonium bromide] + OCC(O)CO
Details | electrical conductivity [S/m] | mass density [kg/m3] | refractive index | viscosity [mPa·s]
[1], 288.15 K, x2 = 0.3636 | – | – | 1.5708 | –
[1], 298.15 K, x2 = 0.3636 | – | – | 1.5666 | –
[1], 308.15 K, x2 = 0.3636 | – | – | 1.5656 | –
[1], 318.15 K, x2 = 0.3636 | – | – | 1.5627 | –
[1], 328.15 K, x2 = 0.3636 | – | – | 1.5607 | –
[1], 338.15 K, x2 = 0.3636 | – | – | 1.5578 | –
[2], 278.1 K, x1 = 0.3636 | 0.00375 | – | – | –
[2], 288.15 K, x1 = 0.3636 | 0.00826 | – | – | –
[2], 298.15 K, x1 = 0.3636 | 0.0165 | 1289.9 | – | –
[2], 308.15 K, x1 = 0.3636 | 0.0315 | 1283 | – | –
[2], 318.15 K, x1 = 0.3636 | 0.0555 | 1275.9 | – | 887.1
[2], 328.15 K, x1 = 0.3636 | 0.0901 | 1268.8 | – | 414.9
[2], 338.15 K, x1 = 0.3636 | 0.127 | 1261.9 | – | 205.7
[2], 348.15 K, x1 = 0.3636 | 0.182 | 1255 | – | 104.8
[2], 358.15 K, x1 = 0.3636 | 0.242 | 1248 | – | 77.4
[2], 368.15 K, x1 = 0.3636 | 0.315 | – | – | 36.9

C[P+](c1ccccc1)(c1ccccc1)c1ccccc1.[Br-] [methyltriphenylphosphonium bromide] + OCCO
Details | electrical conductivity, [2] [S/m] | mass density, [2] [kg/m3] | refractive index, [1] | viscosity, [2] [mPa·s]
278.1 K, x1 = 0.2 | 0.0371 | – | – | 345
288.15 K, x1 = 0.2 | 0.055 | – | – | 186.1
288.15 K, x2 = 0.2 | – | – | 1.5622 | –
298.15 K, x1 = 0.2 | 0.0788 | 1232.6 | – | 109.8
308.15 K, x1 = 0.2 | 0.109 | 1225.6 | – | 68.6
308.15 K, x2 = 0.2 | – | – | 1.5542 | –
318.15 K, x1 = 0.2 | 0.144 | 1218.5 | – | 39.5
328.15 K, x1 = 0.2 | 0.188 | 1211.4 | – | 19.7
328.15 K, x2 = 0.2 | – | – | 1.5483 | –
338.15 K, x1 = 0.2 | 0.234 | 1204.3 | – | 5.4
338.15 K, x2 = 0.2 | – | – | 1.5446 | –
348.15 K, x1 = 0.2 | 0.285 | 1197.2 | – | 1.8
358.15 K, x1 = 0.2 | 0.338 | 1190 | – | –
368.15 K, x1 = 0.2 | 0.382 | – | – | –
